Reference: ChEMBL document CHEMBL4359836, “Synthesis and Biological Assessment of Pyrrolobenzoxazine Scaffold as a Potent Antioxidant” (J Med Chem, 2019)
Activity calls are given as the source filed them. The calls are words filed in the database; no cut-off is given here.

Tests used:
[1] = system: Mitochondria; experiment: (§1) Protective activity against CuCl2/ascorbic acid-induced apoptotic alteration in goat cardiac mitochondria assessed as reversal of CuCl2/ascorbic acid-induced reduction in cytochrome c oxidase activity at 8.25 uM and measured at 10 secs time interval for 90 secs by spectrophotometric analysis (reference value: 72.41%); format: functional, subcellular; set-up: scale not given: the % may be the effect or the level left; conditions: Capra hircus, Heart, Mitochrondria
[2] = Antioxidant activity in pH 7.4 potassium phosphate buffer assessed as CuCl2/ascorbic acid induced hydroxyl radical scavenging activity by measuring trolox equivalent antioxidant capacity by measuring IC50 Trolox/IC50 test compound ratio in presence of deoxyribose by thiobarbituric acid based absorbance analysis; format: functional
[3] = system: Mitochondria; experiment: Protective activity in goat cardiac mitochondria assessed as inhibition of CuCl2/ascorbic acid-induced perforated surface at 66 uM incubated for 1 hr by scanning electron microscopy; format: functional, subcellular; conditions: Capra hircus, Heart, Mitochrondria
[4] = species on record: Capra hircus; experiment: Effect on ICDH in goat cardiac mitochondria assessed as reversal of CuCl2/ascorbic acid induced reduction in Vmax at 66 uM using isocitrate as substrate after 1 hr by Lineweaver-Burk double reciprocal plot analysis; conditions: Heart
[5] = system: Mitochondria; experiment: Antioxidant activity in goat cardiac mitochondria assessed as reversal of CuCl2/ascorbic acid-induced reduction in GSH level at 66 uM after 1 hr by DTNB reagent based method relative to control; format: functional, subcellular; conditions: Capra hircus, Heart, Mitochrondria
[6] = system: Mitochondria; experiment: Antioxidant activity in goat cardiac mitochondria assessed as reversal of CuCl2/ascorbic acid-induced reduction in ICDH level at 8.25 uM using isocitrate as substrate after 1 hr (reference value: 65.58%); format: functional, subcellular; set-up: scale not given: the % may be the effect or the level left; conditions: Capra hircus, Heart, Mitochrondria
[7] = system: Mitochondria; experiment: Antioxidant activity in goat cardiac mitochondria assessed as reversal of CuCl2/ascorbic acid-induced reduction in alpha-KGDH level at 33 uM using alpha-ketoglutarate as substrate after 1 hr relative to control; format: functional, subcellular; conditions: Capra hircus, Heart, Mitochrondria
[8] = system: Mitochondria; experiment: as §1, with “oxidoreductase” for “oxidase”, “uM incubated for 1 hr” for “uM”, “47.82%)” for “72.41%)”; format: functional, subcellular; set-up: scale not given: the % may be the effect or the level left; conditions: Capra hircus, Heart, Mitochrondria
[9] = system: Mitochondria; experiment: Antioxidant activity in goat cardiac mitochondria assessed as reversal of CuCl2/ascorbic acid-induced reduction in SDH level at 33 uM using succinate as substrate after 1 hr by spectrophotometric analysis relative to control; format: functional, subcellular; conditions: Capra hircus, Heart, Mitochrondria
[10] = system: Mitochondria; experiment: Antioxidant activity in goat cardiac mitochondria assessed as inhibition of CuCl2/ascorbic acid-induced protein carbonyl content at 66 uM after 1 hr by DNPH assay relative to control; format: functional, subcellular; conditions: Capra hircus, Heart, Mitochrondria
[11] = species on record: Capra hircus; experiment: Effect on succinate dehydrogenase in goat cardiac mitochondria assessed as reversal of CuCl2/ascorbic acid induced reduction in Km at 66 uM using succinate as substrate after 1 hr by Lineweaver-Burk double reciprocal plot analysis; conditions: Heart
[12] = Effect on alpha-KGDH levels in goat cardiac mitochondria at 8.25 to 66 uM using alpha-ketoglutarate as substrate after 1 hr; format: ADME, subcellular, Capra hircus, Heart, Mitochrondria
[13] = Effect on PDH levels in goat cardiac mitochondria at 8.25 to 66 uM using sodium pyruvate as substrate after 1 hr by spectrophotometric analysis; format: ADME, subcellular, Capra hircus, Heart, Mitochrondria
[14] = system: Mitochondria; experiment: Protective activity in goat cardiac mitochondria assessed as inhibition of CuCl2/ascorbic acid-induced convoluted membranes at 66 uM incubated for 1 hr by scanning electron microscopy; format: functional, subcellular; conditions: Capra hircus, Heart, Mitochrondria
[15] = system: Mitochondria; experiment: Antioxidant activity in goat cardiac mitochondria assessed as inhibition of CuCl2/ascorbic acid-induced manganese superoxide dismutase at 33 uM after 1 hr by pyrogallol autoxidation method relative to control; format: functional, subcellular; conditions: Capra hircus, Heart, Mitochrondria
[16] = Binding affinity to ascorbate at 66 uM in presence of ascorbic acid by isothermal titration calorimetry
[17] = system: Mitochondria; experiment: as §1, with “oxidoreductase” for “oxidase”, “16.5” for “8.25”, “uM incubated for 1 hr” for “uM”, “47.82%)” for “72.41%)”; format: functional, subcellular; set-up: scale not given: the % may be the effect or the level left; conditions: Capra hircus, Heart, Mitochrondria
[18] = Binding affinity to Cu2+ assessed as decrease in heat change at 66 uM in presence of CuCl2 by isothermal titration calorimetry
[19] = Binding affinity to Cu2+ assessed as binding constant K3 at 66 uM in presence of CuCl2 by isothermal titration calorimetry
[20] = system: Mitochondria; experiment: as §1, with “oxidoreductase” for “oxidase”, “33” for “8.25”, “uM” for “uM and”, “47.82%)” for “72.41%)”; format: functional, subcellular; set-up: scale not given: the % may be the effect or the level left; conditions: Capra hircus, Heart, Mitochrondria
[21] = Effect on intactness in goat cardiac mitochondria at 66 uM after 1 hr by Janus green-B staining based confocal microscopic method; format: ADME, subcellular, Capra hircus, Heart, Mitochrondria
[22] = system: Mitochondria; experiment: Antioxidant activity in goat cardiac mitochondria assessed as reversal of CuCl2/ascorbic acid-induced reduction in PDH level at 66 uM using sodium pyruvate as substrate after 1 hr by spectrophotometric analysis relative to control; format: functional, subcellular; conditions: Capra hircus, Heart, Mitochrondria
[23] = species on record: Capra hircus; experiment: Effect on PDH in goat cardiac mitochondria assessed as reversal of CuCl2/ascorbic acid induced reduction in Vmax at 66 uM using sodium pyruvate as substrate after 1 hr by Lineweaver-Burk double reciprocal plot analysis; conditions: Heart
[24] = Toxicity in goat cardiac mitochondria assessed as effect on calcium accumulation at 66 uM after 60 mins by calcein AM dye-based flow cytometric analysis; format: subcellular, Capra hircus, Heart, Mitochrondria; conditions: 1 h
[25] = system: Mitochondria; experiment: Antioxidant activity in goat cardiac mitochondria assessed as inhibition of CuCl2/ascorbic acid-induced manganese superoxide dismutase at 8.25 uM after 1 hr by pyrogallol autoxidation method relative to control; format: functional, subcellular; conditions: Capra hircus, Heart, Mitochrondria
[26] = system: Mitochondria; experiment: Antioxidant activity in goat cardiac mitochondria assessed as reversal of CuCl2/ascorbic acid-induced reduction in SDH level at 16.5 uM using succinate as substrate after 1 hr by spectrophotometric analysis relative to control; format: functional, subcellular; conditions: Capra hircus, Heart, Mitochrondria
[27] = system: Mitochondria; experiment: Protection against CuCl2/ascorbic acid-induced depolarization of goat cardiac mitochondria at 66 uM after 60 mins by calcein AM dye-based flow cytometric analysis; format: functional, subcellular; conditions: Capra hircus, Heart, Mitochrondria
[28] = system: Mitochondria; experiment: Antioxidant activity in goat cardiac mitochondria assessed as reversal of CuCl2/ascorbic acid-induced reduction in alpha-KGDH level at 8.25 uM using alpha-ketoglutarate as substrate after 1 hr (reference value: 69.78%); format: functional, subcellular; set-up: scale not given: the % may be the effect or the level left; conditions: Capra hircus, Heart, Mitochrondria
[29] = system: Mitochondria; experiment: Antioxidant activity in goat cardiac mitochondria assessed as inhibition of CuCl2/ascorbic acid-induced lipid peroxidation at 8.25 uM after 1 hr by thiobarbituric acid based UV-Visible spectrophotometric method (reference value: 60.11%); format: functional, subcellular; conditions: Capra hircus, Heart, Mitochrondria
[30] = Pro-oxidant activity in pH 7.4 potassium phosphate buffer assessed as reduction in CuCl2/ascorbic acid induced hydroxyl radical scavenging activity at > 66 uM in presence of deoxyribose by measuring deoxyribose degradation product formation after 20 mins by thiobarbituric acid based absorbance analysis
[31] = system: Mitochondria; experiment: Antioxidant activity in goat cardiac mitochondria assessed as reversal of CuCl2/ascorbic acid-induced reduction in SDH level at 66 uM using succinate as substrate after 1 hr by spectrophotometric analysis relative to control; format: functional, subcellular; conditions: Capra hircus, Heart, Mitochrondria
[32] = system: Mitochondria; experiment: Antioxidant activity in goat cardiac mitochondria assessed as reversal of CuCl2/ascorbic acid-induced reduction in alpha-KGDH level at 66 uM using alpha-ketoglutarate as substrate after 1 hr relative to control; format: functional, subcellular; conditions: Capra hircus, Heart, Mitochrondria
[33] = Antioxidant activity in pH 7.4 potassium phosphate buffer assessed as CuCl2/ascorbic acid induced hydroxyl radical scavenging activity by measuring deoxyribose degradation product formation after 20 mins by thiobarbituric acid based absorbance analysis; format: functional
[34] = system: Mitochondria; experiment: Antioxidant activity in goat cardiac mitochondria assessed as inhibition of CuCl2/ascorbic acid-induced lipid peroxidation at 66 uM after 1 hr by thiobarbituric acid based UV-Visible spectrophotometric method (reference value: 60.11%); format: functional, subcellular; conditions: Capra hircus, Heart, Mitochrondria
[35] = Binding affinity to Cu2+ assessed as binding constant K2 at 66 uM in presence of ascorbic acid/CuCl2 by isothermal titration calorimetry

## CCOC(=O)c1c(-c2ccc(O)c(OC)c2)cn2c1c(=O)oc1ccccc12
[1]
  Activity: 56.2%
[2]
  Ratio IC50: 0.9
[3]
  Activity: Active
[4]
  Activity: Active
[5]
  fold change (FC): 6.3
[6]
  Activity: 37.7%
[7]
  fold change (FC): 2.74
[8]
  Activity: 23.5%
[9]
  fold change (FC): 3.06
[10]
  inhibition: 72.1%
[11]
  Activity: Active
[12]
  Activity: Non-Toxic
[13]
  Activity: Non-Toxic
[14]
  Activity: Active
[15]
  inhibition: 41.6%
[16]
  K: 4.6 ×10³ /M
[17]
  Activity: 35.2%
[18]
  Activity: Active
[19]
  K: 1.04 ×10⁵ /M
[20]
  Activity: 49.8%
[21]
  Activity: Non-Toxic
[22]
  fold change (FC): 3.82
[23]
  Activity: Active
[24]
  Activity: Non-Toxic
[25]
  inhibition: 25.7%
[26]
  fold change (FC): 2.08
[27]
  Activity: Active
[28]
  Activity: 43.1%
[29]
  inhibition: 12.3%
[30]
  Activity: Active
[31]
  fold change (FC): 5
[32]
  fold change (FC): 4.62
[33]
  Activity: Dose-dependent effect
  IC50: 11 µM
  MEC: 66 µM
[34]
  inhibition: 36.4%
[35]
  K: 5.07 ×10³ /M
